{"source": "patent US6602532B2", "about": "“Process of preserving food and food preservative” (F.G.A. Laboratories Flavourence Corporation, priority 2000, dated 2003)", "key": {"S. typhimurium": {"tested_on": "S. typhimurium", "test": "Growth curve by turbidity at 660 nm", "type": "cell-based, Salmonella typhimurium", "description": "(§1) (iii) L-serine or D-serine as the amino acid was dissolved in sterilized purified water and added with bacteria solutions (B. subtilis and S. typhimurium) of the same amount and then introduced in test tubes. 1 ml of each solution was inoculated on a 9 ml DM medium (partially modified) so that final serine concentration would be 0.5% (w/v). Turbidity of the medium added with the bacteria solution and serine was measured on 660 nm at 37° C. for 10 hours immediately after the inoculation and then growth curves of B. subtilis and S. typhimurium were formed.\n(§2) As a control, turbidity was measured on a medium merely added with sterilized purified water instead of serine.\n(§3) (ii) Turbidity was measured on 660 nm for 8 hours immediately after the inoculation and growth curves of S. typhimurium and B. subtilis were formed in substantially the same manner as the above-described (1)-(iii), except that only L-serine or D-serine of 0.5% (w/v), or L-serine or D serine of 0.5% (w/v) in combination with protamine of 0.03% (w/v), each at the final concentration, were added and solutions of S. typhimurium and B. subtilis were used.\n(§4) With compounds shown in FIGS. 14, 16 and 18, growth curves of S. typhimurium, B. subtilis and E. coli were formed in substantially the same manner as the above-described (1)-(111), respectively. The results are shown in FIGS. 14, 16 and 18, respectively. For comparison, the compounds were solely used without L-serine and the growth curves of S. typhimurium, B. subtilis and E. coli were formed. The results are shown in FIGS. 15, 17 and 19, respectively."}, "B. subtilis": {"tested_on": "B. subtilis", "test": "Growth curve by turbidity at 660 nm", "type": "cell-based, Bacillus subtilis", "conditions": "for proliferation of B. subtilis compared with the control: serine 0.5% (w/v), 37° C., 10 hours, turbidity 660 nm, FIG. 3", "description": "as §1, §2, §3\nGrowth curves of B. subtilis were formed in the same manner as the above-described (4) except that protamine of 0.03% (w/v) was replaced with lysozyme of 0.1% (w/v).\nas §4"}, "B. subtilis MF920": {"tested_on": "B. subtilis MF920", "test": "Survival rate (viable cell count) after addition of amino acids and heat treatment", "type": "cell-based, Bacillus subtilis", "conditions": "heated at 80° C. for 10 minutes; for viable cell count compared with sterilized purified water alone: amino acid 1% (w/v), FIG. 5", "description": "In the same manner as the above-mentioned (1)-(i), additives of glycine, L-alanine, L-serine, L-lysine monohydrochloride, L-threonine and L-arginine monohydrochloride were dissolved in sterilized purified water, respectively to prepare amino acid solutions of 10% (w/v). Then a bacteria solution (B. subtilis MF920) was added to 1 ml of each of the amino acid solutions so that amino acid concentration in each tube would be 1% (w/v).\nThe test tubes were heated at 80° C. for 10 minutes and then quenched. Then, 10 fold dilutions of the obtained bacteria solutions were prepared.\n0.1 ml of each dilution was inoculated on three dishes and incubated 2 days to count expressed colonies. The survival rate was measured in the same manner as described above.\nChange in the bacteria survival rate was examined in the same manner as the above-mentioned (2) except that the concentration of L-serine was varied within 0.01 to 1% (w/v)."}, "E. coli [1]": {"tested_on": "E. coli", "test": "Growth curve by turbidity at 660 nm", "type": "cell-based, Escherichia coli", "conditions": "L-serine 1.5% (w/v) solely, 8 hours; FIG. 7", "description": "as §1, §2\n(i) Turbidity of the medium was measured on 660 nm for 8 hours immediately after the inoculation and the growth curve of E. coli was formed in the same manner as the above-described (1)-(iii) except that L-serine of 1.5% (w/v), or L-serine or D-serine of 1.5% (w/v) and protamine of 0.1% (w/v), each at the final concentration, were added and an E. coli solution was used.\nWith compounds shown in FIGS. 14, 16 and 18, growth curves of S. typhimurium, B. subtilis and E. coli were formed in substantially the same manner as the above-described (1)-(111), respectively. The results are shown in FIGS. 14, 16 and 18, respectively. […]"}, "E. coli [2]": {"tested_on": "E. coli", "test": "Survival rate of E. coli after addition of L- or D-serine, with or without heat treatment", "type": "cell-based, Escherichia coli", "conditions": "serine 0.5% (w/v), FIG. 2", "description": "(i) Glycine, L-alanine, L-serine, L-lysine monohydrochloride, L threonine or L-arginine monohydrochloride was put in test tubes as an additive, respectively, and dissolved in sterilized purified water to prepare amino acid solutions of 10% (w/v). To 1 ml of each of the amino acid solutions 9 ml of the bacteria solution was added so that the concentration of each amino acid would be 1% (w/v).\nThe test tubes containing these amino acids and the bacteria solution were allowed to stand at room temperature for 10 minutes and 10^4 fold dilutions were obtained from the resulting solutions.\n0.1 ml of each dilution was inoculated on three dishes and incubated for 2 days to count the number of expressed colonies as the viable cell count.\nIn the same manner as described above, a 10^4 fold dilution prepared without adding amino acid was used as a blank and incubated to count expressed colonies as the viable cell count.\nAs a survival rate, the viable cell count of bacteria added with amino acid with respect to the viable cell count measured in the blank was measured.\n(ii) The survival rate of E. coli was measured in the same manner as described above except that L-serine and D-serine of 0.5% (w/v) as the amino acids and an E. coli solution as the bacteria solution were used."}, "E. coli [3]": {"tested_on": "E. coli", "test": "E. coli survival rate after heat treatment in the presence of casein", "type": "cell-based, Escherichia coli", "conditions": "L-serine 1% (w/v), casein 1 to 4% (w/v), heated at 40° C. for 10 minutes; FIG. 11", "description": "L-serine of 0% or 1% (w/v), casein of 1 to 4% (w/v) and a 802 growth medium were added in test tubes. The test tubes were heated at 40° C. for 10 minutes and quenched. 10-fold dilutions of the resulting solutions were prepared. 0.1 ml of each of the dilutions was inoculated on three dishes, incubated for one day and expressed colonies were counted to examine change in the E. coli survival rate."}, "[4]": {"test": "Amino acid analysis of L-serine after a heat treatment", "type": "physicochemical", "conditions": "for L-serine concentration: nominal 2 nmol/10 μl", "description": "L-serine was added in 1% (w/v) to the bacteria solution and to the medium used in the above. The obtained bacteria culture solution and medium were divided in two test tubes, respectively. One of them was allowed to stand at room temperature for 10 minutes and the other was heated at 80° C. for 10 minutes. Both were quenched and diluted so that the L-serine concentration would be 2 nmol/10 μl and amino acid analysis was carried out with an amino acid automatic analyzer."}, "Escherichia coli": {"tested_on": "Escherichia coli", "conditions": "in the presence of ethanol; cited from earlier work"}, "[5]": {"conditions": "serine 0.5% (w/v) only, 8 hours, FIG. 8"}, "[6]": {"conditions": "serine 0.5% (w/v), 37° C., 10 hours, turbidity 660 nm, FIG. 4"}}, "note": "Entries after “also recorded” stand apart in the source; their conditions may differ.", "data": [{"smiles": "N[C@H](CO)C(=O)O", "note": "[D-serine]", "values": [{"measurement": "proliferation of S. typhimurium relative to the control", "setting": "S. typhimurium; [5]", "result": "about 80%"}, {"measurement": "proliferation of S. typhimurium relative to the control", "setting": "S. typhimurium; [6]", "result": "about 80%"}, {"measurement": "proliferation of B. subtilis relative to the control", "setting": "B. subtilis; serine 0.5% (w/v) only, 8 hours, FIGS. 9 and 10", "result": "about 50%"}, {"measurement": "proliferation of B. subtilis compared with the control", "setting": "B. subtilis", "result": 80, "unit": "%"}]}, {"smiles": "C[C@H](N)C(=O)O", "note": "[L-alanine]", "values": [{"measurement": "viable cell count compared with sterilized purified water alone", "setting": "B. subtilis MF920", "result": "slightly reduced"}]}, {"smiles": "Cl.N=C(N)NCCC[C@H](N)C(=O)O", "note": "[L-arginine, L-arginine monohydrochloride]", "values": [{"measurement": "viable cell count compared with sterilized purified water alone", "setting": "B. subtilis MF920", "result": "increase"}]}, {"smiles": "Cl.NCCCC[C@H](N)C(=O)O", "note": "[L-lysine, L-lysine monohydrochloride]", "values": [{"measurement": "viable cell count compared with sterilized purified water alone", "setting": "B. subtilis MF920", "result": "increase"}]}, {"smiles": "N[C@@H](CO)C(=O)O", "note": "[L-serine]", "values": [{"measurement": "proliferation of E. coli relative to the control", "setting": "E. coli [1]", "result": "about 40%"}, {"measurement": "proliferation of S. typhimurium relative to the control", "setting": "S. typhimurium; [5]", "result": "about 80%"}, {"measurement": "proliferation of S. typhimurium relative to the control", "setting": "S. typhimurium; [6]", "result": "about 80%"}, {"measurement": "survival rate as a function of L-serine concentration", "setting": "B. subtilis MF920; L-serine 0.01 to 1% (w/v), FIG. 6", "result": "the higher the L-serine concentration was, the more the survival rate decreased"}, {"measurement": "viable cell count compared with sterilized purified water alone", "setting": "B. subtilis MF920", "result": "remarkably reduced; also recorded: greatest reduction"}, {"measurement": "bacteria proliferation after heat treatment", "setting": "E. coli [2]; heat treatment at 80° C. for 10 minutes", "result": "further inhibited"}, {"measurement": "bacteria proliferation relative to the blank", "setting": "E. coli [2]; no heat treatment", "result": "about 30%"}, {"measurement": "E. coli proliferation in the presence of casein", "setting": "E. coli [3]", "result": "effective inhibition"}, {"measurement": "proliferation of B. subtilis compared with the control", "setting": "B. subtilis", "result": "about 10%"}, {"measurement": "decomposition by heating", "setting": "[4]; 80° C. for 10 minutes, regardless of the presence of bacteria", "result": "would not be decomposed"}, {"measurement": "L-serine concentration", "setting": "[4]; bacteria solution heated (80° C., 10 minutes)", "result": 2.3, "unit": "nmol/10 μl"}, {"measurement": "L-serine concentration", "setting": "[4]; bacteria solution unheated (room temperature 10 minutes)", "result": 2.3, "unit": "nmol/10 μl"}, {"measurement": "L-serine concentration", "setting": "[4]; medium heated (80° C., 10 minutes)", "result": 2.3, "unit": "nmol/10 μl"}, {"measurement": "L-serine concentration", "setting": "[4]; medium unheated (room temperature 10 minutes)", "result": 2.2, "unit": "nmol/10 μl"}]}, {"smiles": "C[C@@H](O)[C@H](N)C(=O)O", "note": "[L-threonine]", "values": [{"measurement": "viable cell count compared with sterilized purified water alone", "setting": "B. subtilis MF920", "result": "increase"}]}, {"smiles": "NCC(=O)O", "note": "[glycine]", "values": [{"measurement": "bacteriostasis to Escherichia coli", "setting": "Escherichia coli", "result": "shows bacteriostasis"}, {"measurement": "viable cell count compared with sterilized purified water alone", "setting": "B. subtilis MF920", "result": "slightly reduced"}]}]}
